In patent US10100054B1, “Pyrido[2,3-d]pyrimidines as anticancer agents” (KING SAUD UNIVERSITY, priority 2018, dated 2018) one finds inhibition, IC50 and melting point data, which are given here for two compounds.

Where only a bound is given, the exact number is not on record here.

Data set [1] deals with A549. The experiment in a line: In vitro anticancer screening, MTT cell viability. The data set is classed as cell-based. The note with it: Homo sapiens; for inhibition at 100 µM: A549, 100 μM dose, read-out: Growth inhibition (%). The protocol: (§1) Anticancer activity screening was adopted against five cancer cell lines, viz., HepG2, PC-3, HCT116, MCF-7, A549, and doxorubicin was used as a reference standard at 100 micromole.
(§2) Cell viability was assessed by the mitochondrial dependent reduction of yellow MTT (3-(4,5-dimethylthiazol-2-yl)-2,5-diphenyl tetrazolium bromide) to purple formazan. All the following procedures were done in a sterile area using a laminar air flow cabinet of class II biosafety (Baker, SG403INT, Sanford, Me., USA). Cells were suspended in DMEM medium for PC-3, and RPMI1640 in case of A-549, MCF-7, HCT-116 and HePG-2. The media are supplemented with 1% antibiotic antimycotic mixture (10,000 U ml^−1 Potassium Penicillin, 10,000 μg ml^−1 Streptomycin Sulfate and 25 μg ml^−1 Amphotericin B), 1% L-glutamine and 10% fetal bovine serum (complete growth medium) and kept at […] under 5% CO2. Cells were batch cultured for 10 days, then seeded at a concentration of 10×10^3 cells/well in fresh complete growth medium in 96-well Microtiter plastic plates at 37° C. for 24 h under 5% CO2 and a humid atmosphere using a water jacketed carbon dioxide incubator (Sheldon, TC2323, Cornelius, Oreg., USA). Media was aspirated, fresh medium (without serum) was added, and cells were incubated either alone (negative control) or with serial dilutions of each sample. After 48 h of incubation, the medium was aspirated, 40 μl MTT salt (2.5 μg ml^−1) was added to each well and incubated for a further four hours at 37° C. under 5% CO2. To stop the reaction and dissolving the formed crystals, 200 μl of 10% sodium dodecyl sulfate (SDS) in deionized water was added to each well and incubated overnight at 37° C. The absorbance was then measured using a microplate multi-well reader ELISA reader (Bio-Rad Laboratories Inc., model 3350, Hercules, Calif., USA) at 595 nm and a reference wavelength of 620 nm. A statistical significance was tested between samples and negative control (cells with vehicle) using independent t-test by SPSS 11 program. DMSO is the vehicle used for dissolution of plant extracts, and its final concentration in the cells was less than 0.2%. The percentage of change in viability was calculated according to the formula: (average absorbance of extract/average absorbance of negative control)−1)×100. A probit analysis was carried for IC50 determination using SPSS 11 program.

The test system of data set [2] is HCT116. The data set can be described thus: In vitro anticancer screening, MTT cell viability. The data set is classed as cell-based. The note with it: Homo sapiens, HCT-116; for inhibition at 100 µM: HCT116, 100 μM dose, read-out: Growth inhibition (%); for IC50: HCT116, MTT, 48 h. The protocol: as §1, §2
Data set [3] deals with HepG2. The experiment in a line: In vitro anticancer screening, MTT cell viability. The data set is classed as cell-based. The settings on record: Homo sapiens; for inhibition at 100 µM: HepG2, 100 μM dose, read-out: Growth inhibition (%); for IC50: HepG2, MTT, 48 h. The protocol:
as §1, §2

The test system of data set [4] is MCF7. The data set can be described thus: In vitro anticancer screening, MTT cell viability. It counts as cell-based. The note with it: Homo sapiens; for inhibition at 100 µM: MCF7, 100 μM dose, read-out: Growth inhibition (%). The procedure: as §1, §2
The test system of data set [5] is PC3. The experiment in a line: In vitro anticancer screening, MTT cell viability. The note with it: Homo sapiens, PC-3; for inhibition at 100 µM: PC3, 100 μM dose, read-out: Growth inhibition (%); for IC50: PC3, MTT, 48 h. The data set is classed as cell-based. The protocol:
as §1, §2

The target in data set [6] is CDK4/CyclinD1 (Homo sapiens, UniProt P11802). The experiment in a line: Kinase screening (radiometric or ADP-Glo assay). The data set is classed as biochemical. The procedure: (§3) The in vitro enzyme inhibition determination for the pyrido[2,3-d]pyrimidine derivatives was performed against a range of five protein kinases [PDGFR beta, EGFR, CDK4/Cyclin D1, PI3K (p100b/p85a), and PI3K (p100a/p85a)], including two concentrations (50 & 100 μM) in single measurements using the radiometric or ADP-Glo assay method. The intra-assay variability was determined to be less than 10%. Inhibition of target activity by the compound gives negative (−) values, while activation of target activity gives positive (+) value.
(§4) The pyrido[2,3-d]pyrimidine derivative 5 was supplied by Kinexus as a powder, and a stock solution was made in DMSO. The stock solution was then diluted to form an assay stock solution, and this was used to profile against the protein kinases and lipid protein kinases [PDGFR beta, EGFR, CDK4/Cyclin D1, PI3K (p100b/p85a), and PI3K (p100a/p85a)]. The assay condition for the protein kinase targets was optimized to yield acceptable enzymatic activity. In addition, the assays were optimized to give high signal-to-noise ratio.
(§5) For Protein Kinase (PK) Assays, a radioisotope assay format was used for profiling evaluation of PK targets and all assays were carried out in a designated radioactive working area. PK assays (in singlicate) were performed at ambient temperature for 30 min in a final volume of 25 μl according to the following assay reaction recipe: Component 1:5 μl of diluted active PK target (˜10-50 nM final concentration); Component 2:5 μl of stock solution of substrate (1-5 μg of peptide substrate); Component 3:5 μl of kinase assay buffer; Component 4:5 μl of compound (50 μM) or 10% DMSO; and Component 5:5 μl of ^33P-ATP (250 μM stock solution, 0.8 μCi).
(§6) The assay was initiated by the addition of ^33P-ATP, and the reaction mixture incubated at ambient temperature for 30 minutes. After the incubation period, the assay was terminated by spotting 10 μl of the reaction mixture onto Multiscreen phosphocellulose P81 plate. The Multiscreen phosphocellulose P81 plate was washed 3 times for approximately 15 min each in a 1% phosphoric acid solution. The radioactivity on the P81 plate was counted in the presence of scintillation fluid in a Trilux scintillation counter. Blank control was set up that included all the assay components except the addition of the appropriate substrate (replaced with equal volume of assay dilution buffer). The corrected activity for PK target was determined by removing the blank control value.
Background: In ADP-Glo the light output rises with the ADP produced.

In data set [7] the target is EGFR (Homo sapiens, UniProt P00533). The data set can be described thus: Kinase screening (radiometric or ADP-Glo assay). It counts as biochemical. The protocol:
as §3, §4, §5, §6

For data set [8], the target named is PDGFRβ (Homo sapiens, UniProt P09619). The experiment in a line: Kinase screening (radiometric or ADP-Glo assay). The data set is classed as biochemical. The procedure:
as §3, §4, §5, §6

The target of data set [9] is PI3K (p110a/p85a) (Homo sapiens, UniProt P42336). The experiment in a line: Kinase screening (radiometric or ADP-Glo assay). The data set is classed as biochemical. The note with it: negative values: inhibition, positive values: activation of target activity. The procedure: as §3, §4, §5, §6
Chain of PI3K (p110a/p85a) (P42336 whole entry): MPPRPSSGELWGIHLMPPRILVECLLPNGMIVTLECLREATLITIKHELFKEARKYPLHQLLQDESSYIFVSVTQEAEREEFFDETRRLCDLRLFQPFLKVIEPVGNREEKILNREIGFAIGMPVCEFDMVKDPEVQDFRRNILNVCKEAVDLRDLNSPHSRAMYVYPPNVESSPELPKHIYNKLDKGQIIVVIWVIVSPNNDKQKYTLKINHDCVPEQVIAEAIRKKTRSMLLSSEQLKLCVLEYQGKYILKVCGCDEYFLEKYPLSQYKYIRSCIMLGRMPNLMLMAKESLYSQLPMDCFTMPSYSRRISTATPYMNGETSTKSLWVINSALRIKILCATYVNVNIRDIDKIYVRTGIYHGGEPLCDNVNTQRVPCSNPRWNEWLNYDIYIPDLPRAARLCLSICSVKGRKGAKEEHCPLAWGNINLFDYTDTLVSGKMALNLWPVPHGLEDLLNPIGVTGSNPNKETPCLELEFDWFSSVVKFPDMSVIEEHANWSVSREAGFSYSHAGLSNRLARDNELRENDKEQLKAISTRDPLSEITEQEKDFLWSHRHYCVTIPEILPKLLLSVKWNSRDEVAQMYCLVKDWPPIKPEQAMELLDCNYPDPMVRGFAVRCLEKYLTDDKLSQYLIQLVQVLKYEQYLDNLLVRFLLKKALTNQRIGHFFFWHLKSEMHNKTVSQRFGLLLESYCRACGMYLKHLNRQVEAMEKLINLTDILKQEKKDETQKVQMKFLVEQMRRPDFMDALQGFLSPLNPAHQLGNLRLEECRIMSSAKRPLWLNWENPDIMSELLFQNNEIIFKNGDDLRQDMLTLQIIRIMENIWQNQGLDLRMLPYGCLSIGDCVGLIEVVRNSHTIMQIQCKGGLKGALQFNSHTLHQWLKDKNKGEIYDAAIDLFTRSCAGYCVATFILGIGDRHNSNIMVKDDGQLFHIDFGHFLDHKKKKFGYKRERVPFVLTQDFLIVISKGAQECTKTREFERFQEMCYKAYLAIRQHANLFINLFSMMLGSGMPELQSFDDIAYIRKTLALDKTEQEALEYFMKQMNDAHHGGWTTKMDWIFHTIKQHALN
Chain of PI3K (p110a/p85a) (P27986 whole entry partner): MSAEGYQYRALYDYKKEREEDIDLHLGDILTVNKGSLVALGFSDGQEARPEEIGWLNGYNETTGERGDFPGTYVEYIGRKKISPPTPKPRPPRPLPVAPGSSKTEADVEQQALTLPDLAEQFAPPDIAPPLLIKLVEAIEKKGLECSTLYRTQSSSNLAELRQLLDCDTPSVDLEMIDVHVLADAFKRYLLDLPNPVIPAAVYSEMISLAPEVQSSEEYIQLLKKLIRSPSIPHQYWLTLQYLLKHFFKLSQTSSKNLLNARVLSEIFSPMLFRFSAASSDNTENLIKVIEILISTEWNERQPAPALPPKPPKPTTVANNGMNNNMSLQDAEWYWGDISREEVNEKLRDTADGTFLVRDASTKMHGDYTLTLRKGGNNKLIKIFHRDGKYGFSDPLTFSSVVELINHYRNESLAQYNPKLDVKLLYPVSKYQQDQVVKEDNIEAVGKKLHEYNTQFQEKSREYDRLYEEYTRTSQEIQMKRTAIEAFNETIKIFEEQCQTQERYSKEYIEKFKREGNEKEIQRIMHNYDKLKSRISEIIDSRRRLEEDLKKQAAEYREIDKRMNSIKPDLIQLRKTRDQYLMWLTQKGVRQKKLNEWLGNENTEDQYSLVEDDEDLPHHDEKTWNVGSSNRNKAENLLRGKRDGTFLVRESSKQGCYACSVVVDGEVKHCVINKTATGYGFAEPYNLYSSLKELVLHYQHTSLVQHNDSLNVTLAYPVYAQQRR

Chain of CDK4/CyclinD1 (P11802 whole entry, species assumed): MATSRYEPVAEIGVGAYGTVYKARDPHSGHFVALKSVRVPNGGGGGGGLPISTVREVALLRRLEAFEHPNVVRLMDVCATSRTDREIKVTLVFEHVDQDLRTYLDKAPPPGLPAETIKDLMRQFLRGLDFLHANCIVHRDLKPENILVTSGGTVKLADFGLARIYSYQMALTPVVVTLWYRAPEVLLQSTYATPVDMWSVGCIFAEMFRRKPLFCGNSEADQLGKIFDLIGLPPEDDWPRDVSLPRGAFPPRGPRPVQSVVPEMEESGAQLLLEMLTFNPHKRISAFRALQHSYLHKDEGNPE
Chain of CDK4/CyclinD1 (P24385 whole entry partner, species assumed): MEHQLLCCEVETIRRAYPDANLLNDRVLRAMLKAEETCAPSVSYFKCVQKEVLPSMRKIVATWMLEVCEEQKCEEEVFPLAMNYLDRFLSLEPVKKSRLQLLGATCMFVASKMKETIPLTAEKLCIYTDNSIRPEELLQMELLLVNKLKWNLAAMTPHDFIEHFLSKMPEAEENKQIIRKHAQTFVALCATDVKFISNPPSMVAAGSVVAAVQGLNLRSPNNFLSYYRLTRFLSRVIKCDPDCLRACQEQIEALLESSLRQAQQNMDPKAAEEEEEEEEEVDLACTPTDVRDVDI
Chain of PDGFRβ (P09619 33-1106, species assumed): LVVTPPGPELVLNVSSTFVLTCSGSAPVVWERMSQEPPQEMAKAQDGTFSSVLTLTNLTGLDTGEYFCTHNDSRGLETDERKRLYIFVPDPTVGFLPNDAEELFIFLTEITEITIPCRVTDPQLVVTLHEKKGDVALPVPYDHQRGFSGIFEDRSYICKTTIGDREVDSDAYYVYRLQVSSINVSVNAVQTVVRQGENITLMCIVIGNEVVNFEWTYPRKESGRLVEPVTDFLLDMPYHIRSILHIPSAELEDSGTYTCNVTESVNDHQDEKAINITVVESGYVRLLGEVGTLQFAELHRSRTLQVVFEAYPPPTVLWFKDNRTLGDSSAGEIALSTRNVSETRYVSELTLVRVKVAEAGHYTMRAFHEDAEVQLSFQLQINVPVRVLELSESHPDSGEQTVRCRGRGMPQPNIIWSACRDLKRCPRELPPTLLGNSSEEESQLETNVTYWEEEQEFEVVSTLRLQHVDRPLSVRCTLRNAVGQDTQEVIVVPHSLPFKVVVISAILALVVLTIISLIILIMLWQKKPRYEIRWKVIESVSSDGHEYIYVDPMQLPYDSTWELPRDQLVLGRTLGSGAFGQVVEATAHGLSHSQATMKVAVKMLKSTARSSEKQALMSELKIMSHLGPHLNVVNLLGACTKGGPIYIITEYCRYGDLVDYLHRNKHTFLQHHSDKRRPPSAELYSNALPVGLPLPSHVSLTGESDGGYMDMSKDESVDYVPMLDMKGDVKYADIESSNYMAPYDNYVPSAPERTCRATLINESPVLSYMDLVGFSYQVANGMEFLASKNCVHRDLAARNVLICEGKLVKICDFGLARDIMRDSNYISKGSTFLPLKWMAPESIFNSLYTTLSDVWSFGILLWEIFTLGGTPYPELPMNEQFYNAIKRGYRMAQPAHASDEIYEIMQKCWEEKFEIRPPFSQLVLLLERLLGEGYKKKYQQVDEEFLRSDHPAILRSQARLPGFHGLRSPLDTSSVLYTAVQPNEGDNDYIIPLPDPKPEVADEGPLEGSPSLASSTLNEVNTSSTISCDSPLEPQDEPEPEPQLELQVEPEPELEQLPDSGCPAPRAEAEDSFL
Chain of EGFR (P00533 25-1210, species assumed): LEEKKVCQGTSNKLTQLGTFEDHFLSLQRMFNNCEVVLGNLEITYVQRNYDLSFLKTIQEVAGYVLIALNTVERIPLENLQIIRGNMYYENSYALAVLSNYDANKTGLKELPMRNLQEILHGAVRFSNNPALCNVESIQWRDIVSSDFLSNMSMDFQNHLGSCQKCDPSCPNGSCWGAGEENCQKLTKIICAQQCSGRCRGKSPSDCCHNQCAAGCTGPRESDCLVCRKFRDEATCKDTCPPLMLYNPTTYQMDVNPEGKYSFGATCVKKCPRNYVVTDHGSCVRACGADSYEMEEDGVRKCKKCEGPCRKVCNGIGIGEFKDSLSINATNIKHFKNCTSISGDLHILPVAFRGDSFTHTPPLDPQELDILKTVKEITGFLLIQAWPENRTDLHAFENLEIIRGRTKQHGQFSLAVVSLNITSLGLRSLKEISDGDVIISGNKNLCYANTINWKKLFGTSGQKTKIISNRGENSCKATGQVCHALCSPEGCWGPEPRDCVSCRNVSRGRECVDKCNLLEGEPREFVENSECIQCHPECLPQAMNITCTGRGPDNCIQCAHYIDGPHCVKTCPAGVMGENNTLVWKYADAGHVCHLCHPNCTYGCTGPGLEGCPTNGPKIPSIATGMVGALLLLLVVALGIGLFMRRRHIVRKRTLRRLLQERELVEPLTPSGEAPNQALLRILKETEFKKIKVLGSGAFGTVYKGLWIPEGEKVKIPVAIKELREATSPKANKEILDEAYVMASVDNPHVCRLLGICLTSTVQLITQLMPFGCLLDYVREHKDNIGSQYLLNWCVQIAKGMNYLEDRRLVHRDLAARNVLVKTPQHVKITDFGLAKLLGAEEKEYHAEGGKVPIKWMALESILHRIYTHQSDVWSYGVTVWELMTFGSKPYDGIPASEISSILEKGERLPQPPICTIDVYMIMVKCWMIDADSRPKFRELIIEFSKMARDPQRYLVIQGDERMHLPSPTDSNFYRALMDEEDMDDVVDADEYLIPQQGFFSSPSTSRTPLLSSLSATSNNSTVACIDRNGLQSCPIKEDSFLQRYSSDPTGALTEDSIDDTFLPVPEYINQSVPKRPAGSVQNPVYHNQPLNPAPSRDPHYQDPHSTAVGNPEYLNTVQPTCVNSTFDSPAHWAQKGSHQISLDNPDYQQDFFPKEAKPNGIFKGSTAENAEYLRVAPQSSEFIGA

`COc1cccc(-c2cc(-c3cccnc3)nc3nc(-n4[nH]c(C)cc4=O)[nH]c(=O)c23)c1` [Target] came in with a melting point greater than 300 °C. Further, in data set [1], the inhibition at 100 µM is 99%. Moreover, in data set [1] (A549, MTT, 48 h), the IC50 was found to be 3.21 ± 0.4 µM. In addition, in [2], the inhibition at 100 µM was determined as 99% and the IC50 stood at 6.9 ± 0.5 µM. Besides, in data set [3], the inhibition at 100 µM came out at 100% and inhibition was half-maximal at 0.3 µM (IC50). In [4], the inhibition at 100 µM turned out to be 87%. Also, half-maximal inhibition in [4] (MCF7, MTT, 48 h) (IC50) was put at 9.1 ± 2.1 µM. Moreover, in [5], the inhibition at 100 µM was determined as 100% and the IC50 came out at 5.3 ± 0.09 µM. In data set [6] (50 μM), the inhibition at 50 µM is 31%. Moreover, the inhibition at 100 µM in [6] (100 μM) was determined as 73%. For the same compound, the inhibition at 50 µM in data set [7] (50 μM) is 79%. Further, the inhibition at 100 µM in data set [7] (100 μM) worked out at 85%. For the same compound, the inhibition at 50 µM in [8] (50 μM) is 83%. Besides, the inhibition at 100 µM in [8] (100 μM) came to 90%. Besides, the inhibition at 50 µM in data set [9] (50 μM) was -178%. The inhibition at 100 µM in data set [9] (100 μM) was -185%.

Take `COc1cccc2c1C(=O)c1c(O)c3c(c(O)c1C2=O)C[C@@](O)(C(=O)CO)C[C@@H]3O[C@H]1C[C@H](N)[C@H](O)[C@H](C)O1` [doxorubicin, reference compound]: the inhibition at 100 µM in data set [1] was determined as 100%; in data set [2], 100%; in data set [3], 100%; in data set [4], 91%; in [5] it was 100%. Also, the IC50 in data set [2] was 12.8 ± 1 µM; in [3] it was 0.6 µM; in [5] it was 6.8 ± 1.2 µM.

A word on the inhibition: it is the drop in the measured response relative to a control, in per cent. As usually defined, the IC50 is the concentration needed to halve the response being measured. The low end stands for inhibition by little substance, the high end for a need for much substance. In general, melting point refers to the temperature, or range, at which the solid turns liquid.
